Values quoted from earlier work, collected in patent US20070276004A1, “Pharmaceutical Composition Comprising an Immunosuppressant for Use in the Treatment of Skin Diseases” (priority 2003, published 2007).

System: allogeneic kidney transplantation
Details: rat model of allogeneic kidney transplantation; oral administration; suppression of systemic immune response

C=CC[C@@H]1/C=C(\C)C[C@H](C)C[C@H](OC)[C@H]2O[C@@](O)(C(=O)C(=O)N3CCCC[C@H]3C(=O)O[C@H](/C(C)=C/[C@@H]3CC[C@@H](O)[C@H](OC)C3)[C@H](C)[C@@H](O)CC1=O)[C@H](C)C[C@@H]2OC [tacrolimus]
minimum effective dose (MED): 14 mg/kg
